Data from patent US20260001910A1, “PEPTIDES AND USES THEREOF” (PreveCeutical Medical Inc., priority 2021, published 2026).
Like-named read-outs stand apart in the source and are kept apart here.

Key:
[1] = Text: (§1) The MTT (3-[4.5-dimethylthiazol-2-yl]-2,5=diphenyl tetrazolium bromide) assay is based on a process undertaken by living cells, involving the conversion of MTT into formazan crystals. This assay is used routinely to measure the in vitro cytotoxic effects of drugs on cell lines or primary patient cells (Van Meerloo et al., 2011).
(§2) The glioblastoma multiforme (GBM) cell lines used were U87 and U251 cells and patient derived cells grown as oncospheres (081024 cells). Human adherent GBM cell lines U87 and U251 were cultured in RPMI medium (Life Technologies Melbourne Australia) supplemented with 5% v/v FBS, 100 U/mL penicillin and 100 μg/mL streptomycin. 081024 cells were cultured in NeuroCult™ NS-A Proliferation medium with 0.2% (v/v) hepain, 20 ng/mL EGF and 10 ng/ml FGF.
(§3) 8×10^3 U87 and 7×10^3 U251 cells per well were seeded in 96 well plates in 200 μL serum-containing RPMI medium and incubated at 37° C. with 5% CO2 for 24 hours. After one wash with serum-free medium, 100 μL serum-free medium with different concentration of peptide SEQ ID NO:1 was added to each well. After 48 hours incubation, 10 μL of 0.5 mg/mL MTT was added and incubated for 2 hours at 37° C. Formazan crystals were dissolved by 200 μL/well dimethyl sulfoxide (DMSO) and shaking for 15 minutes. The UV absorbance was read with an iMark™ microplate absorbance reader at 595 nm (Bio-Rad Laboratories). Background absorbance was subtracted and results expressed as the % viability of control (untreated cells).

[2] = remark: listed apart in the source
Text: as §1, §2, §3

uPA = experiment: Casein-plasminogen zymography of conditioned media (uPA production); type: cell-based, human; settings: for uPA production: conditioned medium, compared to no-peptide control
Text: (§4) To assess whether the peptide SEQ ID NO. 1 impacted MMP-2, MMP-9 and uPA production Zymography was used.
(§5) Zymography is a technique for studying hydrolytic enzymes on the basis of substrate degradation (Vandooren, J. et al. 2013). The in-gel zymography hydrolytic enzymes are separated by their molecular weights and detected by their ability to degrade a substrate. To detect the activity of MMP-2 and MMP-9 in various cell lines, conditioned media were collected in 3 independent experiments and analysed by gelatin zymography to quantify the level of gelatin digestion, which reflects MMP-2 and MMP-9 activity and production. Cascin-Plasminogen zymography was conducted to determine the activity level of uPA in the conditioned medium from various cell lines. Active uPA converts plasminogen into plasmin which then digests casein, thus clear bands where digestion of casein have occurred indirectly represent uPA activity.
(§6) The effect of the peptides on matrix protease production was tested using in-gel zymography. If the substrate included in the gel is gelatin, the enzymes detected are gelatinases: MMP-2 and MMP-9 (the latter is often of low abundance). If the gel contains casein and plasminogen, the enzymes tested are urokinase plasminogen activators (uPA); uPA is a therapeutic target in GBM.
(§7) An equal amount of protein from each sample was mixed with 5 μL of Laemmli buffer (0.01% Bromophenol Blue (W/V), 5% SDS (W/V), 22% glycerol (V/V), 14% 0.5 M Tris pH 6.8 (V/V)) and loaded onto a 10% polyacrylamide gel co-polymerized with 1 mg/ml of gelatin, and electrophoresed at 120V for 2 hours on ice. The gel was incubated in […] solution (Triton X-100 2.5% (V/V), 1 M Tris pH 7.5 5% (V/V), 0.5 M CaCl2) 1% (W/V) at room temperature overnight on an orbital shaker. The gel was incubated in a second solution for 3 hours at 37° C. The gel was then stained with Coomassie blue solution (Coomassie blue 0.25%, methanol 45%, acetic acid 10%) and destained in methanol 25% (V/V), acetic acid 10% (V/V) destaining solution until clear bands against the dark background appeared around 72 kDa and 95 kDa, representing MMP-2 and MMP-9 activity, respectively. Clear bands around 50 kDa appeared against the dark background representing uPA activity. The gels were scanned, and uPA, MMP-2 and MMP-9 were quantified by densitometry using NIH Image J software.
(§8) SEQ ID NO. 1 was compared to a control containing no peptide to evaluate whether the peptide can reduce the production of matrix proteinases. A reduction in the production of matrix proteinases may be anticipated to result in comparatively less degradation of the extra-cellular matrix and so this could be one pathway by which the invasion potential could be reduced.

recombinant MMP-2 = molecular target: T1, recombinant MMP-2 (Homo sapiens, UniProt P08253); experiment: MMP-2 Inhibitor Screening Assay Kit (colorimetric); type: biochemical
T1 construct: purchased ab139446
T1 sequence (P08253 110-446 limits assumed): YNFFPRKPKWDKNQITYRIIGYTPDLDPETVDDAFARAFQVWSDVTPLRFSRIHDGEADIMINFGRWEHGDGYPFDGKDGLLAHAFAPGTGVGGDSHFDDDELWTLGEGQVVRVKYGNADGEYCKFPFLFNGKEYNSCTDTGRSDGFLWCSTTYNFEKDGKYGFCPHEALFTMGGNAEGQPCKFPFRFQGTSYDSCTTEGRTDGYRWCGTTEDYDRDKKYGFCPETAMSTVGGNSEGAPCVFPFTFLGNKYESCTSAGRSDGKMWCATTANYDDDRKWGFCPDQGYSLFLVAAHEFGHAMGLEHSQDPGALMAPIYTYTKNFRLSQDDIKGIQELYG
Protocol: MMP-2 is an important target for inhibitor screening due to its involvement in cancer growth, angiogenesis, and metastasis. The MMP-2 screening assay was carried out with a commercially available MMP-2 Inhibitor Screening Assay Kit (Colorimetric, Catalog: ab139446) based on the manufacturers protocol. This assay is based on quantification of recombinant MMP-2 activity using a colorimetric assay (MMP-2 degrades a chromogenic substrate). The assay provides NNGH (N-isobutyl-N-(4-methoxyphenylsulfonyl) glycyl hydroxamic acid), a small molecule inhibitor, as a positive control (NNGH). […] Each determination was run in duplicate.
Briefly, MMP Substrate and MMP Inhibitor were warmed to room temperature to thaw DMSO. MMP Inhibitor (NNGH), MMP-2 substrate and MMP-2 enzyme were diluted with assay buffer to required concentration. 20 μL of MMP-2 enzyme and MMP-2 inhibitor (peptides, Chlorotoxin and NNGH) was added, then 50 μL of assay buffer was added and the reaction mixture incubated at 37° C. for 1 h. After incubation, 10 μL of MMP Substrate was added to start reaction. The reactions were continuously read at 412 nm in a microplate reader. Data was recorded at 1 min. time intervals for 10 to 20 min. The data as was plotted as optical density (OD) versus time for each sample. The reaction velocity (V) was obtained in OD/min: determine the slope of a line fit to the linear portion of the data plot using an appropriate routine. Then using the equation above the inhibitor % activity remaining was calculated. The control was without inhibitor.

MMP-9 = experiment: Gelatin zymography of conditioned media (metalloprotease production); type: cell-based, human; settings: conditioned medium, compared to no-peptide control
Text: as §4, §5, §6, §7, §8

MMP-2 = experiment: as above; type: cell-based, human; settings: for MMP-2 production: conditioned medium, compared to no-peptide control
Text: as §4, §5, §6, §7, §8

[3] = overall, versus no-peptide control

CC(C)C[C@@H](NC(=O)[C@@H](Cc1ccccc1)NC(=O)CNC(=O)CNC(=O)[C@H](N)Cc1ccc(O)cc1)C(=O)N[C@H](CCCNC(=N)N)C(=O)N[C@H](CCCNC(=N)N)C(N)=O [SEQ ID NO. 1, tyr-Gly-Gly-phe-leu-arg-arg-NH2]
viability at 5 µM [1]: 100%
viability at 50 µM [1]: 101%
viability at 100 µM [1]: 94.4%
viability at 5 µM [2]: 97.9%
viability at 50 µM [2]: 101%
viability at 100 µM [2]: 95.9%
uPA production (uPA; 081024 cells): 97.57 ± 13.7
uPA production (uPA; U87 cells): 109.1 ± 12.41
uPA production (uPA; U251 cells): 95.22 ± 12.83
effect on production of uPA (in words) (uPA; [3]): did not decrease the production
activity at 1 µM (recombinant MMP-2; 1 μM, lower % = higher inhibitory activity, read-out: % inhibition (MMP-2 inhibitor screening)): 66.4%
activity at 10 µM (recombinant MMP-2; 10 μM, lower % = higher inhibitory activity, read-out: % inhibition (MMP-2 inhibitor screening)): 61.8%
activity at 100 µM (recombinant MMP-2; 100 μM, lower % = higher inhibitory activity, read-out: % inhibition (MMP-2 inhibitor screening)): 50.4%
ability to inhibit MMP-2 activity (in words) (recombinant MMP-2; 1 to 100 μM): dose dependent ability to inhibit MMP-2 activity
MMP-9 production (MMP-9; 081024 cells): 101.4
MMP-9 production (MMP-9; U87 cells): 67.83
MMP-9 production (MMP-9; U251 cells): 65.41
MMP-2 production (MMP-2; 081024 cells): 100.50
MMP-2 production (MMP-2; U87 cells): 91.11
MMP-2 production (MMP-2; U251 cells): 97.13
effect on production of MMP-2 (in words) (MMP-2; [3]): did not decrease the production
